According to ChEMBL document CHEMBL5113400, “Design, synthesis, and biological evaluation of trizole-based heteroaromatic derivatives as Bcr-Abl kinase inhibitors” (Eur J Med Chem, 2022):

Legend:
[1] = molecular target: Bcr/Abl fusion protein (Homo sapiens, UniProt P00519); experiment: Inhibition of wild type Bcr-Abl (unknown origin) incubated for 1 hr in presence of ATP by ADP-Glo kinase assay; assay type: protein assay
[2] = molecular target: Bcr/Abl fusion protein (Homo sapiens, UniProt P00519, T315I); experiment: Inhibition of Bcr-Abl T315I mutant (unknown origin) incubated for 1 hr in presence of ATP by ADP-Glo kinase assay; assay type: protein assay
[3] = tested on: K562; experiment: Antiproliferative activity against human K562 cells assessed as inhibition of cell growth incubated for 48 hrs by MTT assay; assay type: functional, cell-based; settings: K562, 48 h
[4] = tested on: BaF3; experiment: Antiproliferative activity against mouse BaF3 cells expressing Bcr-Abl T315I mutant assessed as inhibition of cell growth at 30 uM incubated for 72 hrs by CellTiter-Glo luminescent assay; assay type: functional
[5] = tested on: K562/Adr; experiment: Antiproliferative activity against human Adriamycin-resistant K562/Adr cells assessed as inhibition of cell growth at 30 uM incubated for 48 hrs by MTT assay; assay type: functional
[6] = tested on: K562/Adr; experiment: Antiproliferative activity against human Adriamycin-resistant K562/Adr cells assessed as inhibition of cell growth incubated for 48 hrs by MTT assay; assay type: functional, cell-based

SMILES | IC50 [1] [nM] | IC50 [2] [nM] | IC50 [3] [nM] | inhibition at 30 µM [4] [%] | inhibition at 30 µM [5] [%] | IC50 [6] [nM]
Nc1nc2ccc(-c3cn([C@@H]4CN[C@H](C(=O)Nc5ccc(Cl)cc5Cl)C4)nn3)nc2s1 | 9.45 | 118 | 24500 | 19.5 | 42.2 | –
C=CC(=O)Nc1ccc(-c2cn([C@@H]3CN[C@H](C(=O)Nc4ccc(Cl)c(C(F)(F)F)c4)C3)nn2)cn1 | 9.26 | 140 | 3860 | 26 | – | 80400
O=C(Nc1ccc(Cl)c(C(F)(F)F)c1)[C@@H]1C[C@H](n2cc(-c3cncc(C(=O)N4CCOCC4)c3)nn2)CN1 | 60.1 | 801 | 28800 | – | 25.6 | –
CC(=O)Nc1n[nH]c2cc(-c3cn([C@@H]4CN[C@H](C(=O)Nc5ccc(Cl)c(C(F)(F)F)c5)C4)nn3)ccc12 | 28.2 | 121 | 15500 | 21.8 | 23.4 | –
O=C(Nc1nc2ccc(-c3cn([C@@H]4CN[C@H](C(=O)Nc5ccc(F)c(F)c5)C4)nn3)nc2s1)C1CC1 | 30.1 | 1340 | 40700 | – | 29.5 | –
CC(C)(C)OC(=O)N1C[C@@H](n2cc(-c3ccc4c(N)n[nH]c4c3)nn2)C[C@H]1C(=O)Nc1ccc(Cl)c(C(F)(F)F)c1 | 21.9 | 150 | 10500 | 53.8 | 37.1 | –
CC(C)(C)OC(=O)N1C[C@@H](n2cc(-c3ccc4nc(N)sc4n3)nn2)C[C@H]1C(=O)Nc1ccc(F)c(F)c1 | 17.4 | 487 | 26400 | 16.8 | – | 63800
O=C(Nc1n[nH]c2cc(-c3cn([C@@H]4CN[C@H](C(=O)Nc5ccc(Cl)cc5Cl)C4)nn3)ccc12)C1CC1 | 0.83 | 200 | 5340 | 27.6 | 43.3 | –
Nc1ccc(-c2cn([C@@H]3CN[C@H](C(=O)Nc4ccc(Cl)c(C(F)(F)F)c4)C3)nn2)cn1 | 3.11 | 303 | 10400 | 27.9 | – | 25200
CC(C)(C)OC(=O)N1C[C@@H](n2cc(-c3ccc4nc(N)sc4n3)nn2)C[C@H]1C(=O)Nc1ccc(Br)cc1 | 6.88 | 25.2 | 29200 | – | 31.7 | –
Nc1n[nH]c2cc(-c3cn([C@@H]4CN[C@H](C(=O)Nc5ccc(Cl)cc5Cl)C4)nn3)ccc12 | 8.6 | 3670 | 28400 | 19.3 | 29.4 | –
Nc1nc2ccc(-c3cn([C@@H]4CN[C@H](C(=O)Nc5ccc(F)c(F)c5)C4)nn3)nc2s1 | 128 | 1590 | 33200 | – | 27.4 | –
Nc1nc2ccc(-c3cn([C@@H]4CN[C@H](C(=O)Nc5ccc(Cl)c(C(F)(F)F)c5)C4)nn3)nc2s1 | 15.6 | 24.7 | 26200 | – | – | 187000
Nc1n[nH]c2cc(-c3cn([C@@H]4CN[C@H](C(=O)Nc5ccc(Cl)c(C(F)(F)F)c5)C4)nn3)ccc12 | 15 | 137 | 8320 | 31.2 | 48.2 | –
CC(C)(C)C(=O)Nc1ccc(-c2cn([C@@H]3CN[C@H](C(=O)Nc4ccc(Cl)c(C(F)(F)F)c4)C3)nn2)cn1 | 41.5 | 3440 | 43800 | – | 19.1 | –
CC(=O)Nc1ccc(-c2cn([C@@H]3CN[C@H](C(=O)Nc4ccc(Cl)c(C(F)(F)F)c4)C3)nn2)cn1 | 3.45 | 127 | 8980 | 26.5 | 33.6 | –

SMILES | IC50 [1] [nM] | IC50 [2] [nM] | IC50 [3] [nM] | inhibition at 30 µM [4] [%] | inhibition at 30 µM [5] [%] | IC50 [6] [nM]
CC(C)(C)OC(=O)N1C[C@@H](n2cc(-c3ccc4c(N)n[nH]c4c3)nn2)C[C@H]1C(=O)Nc1ccc(Br)cc1 | 50 | 237 | 3710 | 20.1 | 23 | –
CC(C)(C)OC(=O)N1C[C@@H](n2cc(-c3ccc4nc(N)sc4n3)nn2)C[C@H]1C(=O)Nc1ccc(Cl)c(C(F)(F)F)c1 | 10.6 | 667 | 10800 | 52.3 | 27.4 | –
CC(C)(C)OC(=O)N1C[C@@H](n2cc(-c3ccc4c(N)n[nH]c4c3)nn2)C[C@H]1C(=O)Nc1ccc(Cl)cc1Cl | 60.6 | 1880 | 12200 | 28.7 | 25.6 | –
O=C(Nc1nc2ccc(-c3cn([C@@H]4CN[C@H](C(=O)Nc5ccc(Cl)c(C(F)(F)F)c5)C4)nn3)nc2s1)C1CC1 | 24.6 | 110 | 16200 | 78.8 | 10.4 | –
Nc1nc2ccc(-c3cn([C@@H]4CN[C@H](C(=O)Nc5ccc(Br)cc5)C4)nn3)nc2s1 | 27.1 | 178 | 24400 | 27.5 | 35.9 | –
CC(=O)Nc1nc2ccc(-c3cn([C@@H]4CN[C@H](C(=O)Nc5ccc(Br)cc5)C4)nn3)nc2s1 | 6.99 | 169 | 5020 | 40 | 32 | –
CC(=O)Nc1nc2ccc(-c3cn([C@@H]4CN[C@H](C(=O)Nc5ccc(Cl)cc5Cl)C4)nn3)nc2s1 | 4.8 | 388 | 9670 | 39.5 | 36.1 | –
CC(C)(C)OC(=O)N1C[C@@H](n2cc(-c3ccc(N)nc3)nn2)C[C@H]1C(=O)Nc1ccc(Cl)c(C(F)(F)F)c1 | 0.94 | 125 | 4710 | 66.7 | 48.6 | –
Nc1n[nH]c2cc(-c3cn([C@@H]4CN[C@H](C(=O)Nc5ccc(Br)cc5)C4)nn3)ccc12 | 43.6 | 310 | 10300 | – | 26.8 | –
CN(C)CCNC(=O)c1cncc(-c2cn([C@@H]3CN[C@H](C(=O)Nc4ccc(Cl)c(C(F)(F)F)c4)C3)nn2)c1 | 29.2 | 349 | 21000 | 21.8 | 14.5 | –
O=C(Nc1ccc(-c2cn([C@@H]3CN[C@H](C(=O)Nc4ccc(Cl)c(C(F)(F)F)c4)C3)nn2)cn1)C1CC1 | 0.65 | 338 | 8770 | 36.4 | 44.3 | –
CC(C)(C)OC(=O)N1C[C@@H](n2cc(-c3ccc4nc(N)sc4n3)nn2)C[C@H]1C(=O)Nc1ccc(Cl)cc1Cl | 14.7 | 410 | 8940 | 86.7 | 28.3 | –
CCN(CC)C(=O)c1cncc(-c2cn([C@@H]3CN[C@H](C(=O)Nc4ccc(Cl)c(C(F)(F)F)c4)C3)nn2)c1 | 14.5 | 261 | 27600 | – | 32.4 | –
CC(=O)Nc1nc2ccc(-c3cn([C@@H]4CN[C@H](C(=O)Nc5ccc(Cl)c(C(F)(F)F)c5)C4)nn3)nc2s1 | 23.5 | 59.6 | 10000 | 44.8 | – | –
CC(=O)Nc1nc2ccc(-c3cn([C@@H]4CN[C@H](C(=O)Nc5ccc(F)c(F)c5)C4)nn3)nc2s1 | 202 | 1890 | 63000 | – | 38.4 | –
O=C(Nc1n[nH]c2cc(-c3cn([C@@H]4CN[C@H](C(=O)Nc5ccc(Br)cc5)C4)nn3)ccc12)C1CC1 | 5.53 | 144 | 8080 | 20 | 39.6 | –
